# pIC50: −log10 of the molar value.
# Target: T1, Chk1 (Homo sapiens, UniProt O14757)
# T1 construct: purchased Upstate Biotechnology
# T1 sequence (O14757 1-476): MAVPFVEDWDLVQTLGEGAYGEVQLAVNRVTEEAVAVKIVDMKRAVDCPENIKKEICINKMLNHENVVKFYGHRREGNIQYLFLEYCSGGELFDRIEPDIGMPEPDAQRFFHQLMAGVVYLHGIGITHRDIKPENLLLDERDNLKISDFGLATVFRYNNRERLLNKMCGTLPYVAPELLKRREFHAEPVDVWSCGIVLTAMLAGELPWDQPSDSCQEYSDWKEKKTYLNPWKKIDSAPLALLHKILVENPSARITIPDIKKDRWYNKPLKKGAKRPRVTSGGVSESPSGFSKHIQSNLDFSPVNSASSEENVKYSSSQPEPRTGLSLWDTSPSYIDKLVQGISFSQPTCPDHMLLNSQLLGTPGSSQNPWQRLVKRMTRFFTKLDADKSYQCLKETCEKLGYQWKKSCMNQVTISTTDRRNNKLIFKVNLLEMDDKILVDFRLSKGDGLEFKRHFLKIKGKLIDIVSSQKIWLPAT
# Assay: Chk1 kinase assay: incorporation of γ-33P ATP into immobilized myelin basic protein
# Type: biochemical
# Settings: Table 11, Chk1 only; class symbols A-D; read-out: Chk1 IC50
# Procedure, shortened: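 Incorporation of γ-33P into myelin basic protein coated on plates was scintillation-counted after 1 h at room temperature, duplicate points. Unlabeled ATP was 10 μM with 10 nM Chk1, 30 μM with 20 nM Chk2; buffer Hepes pH 7.6, MgCl2, DTT, 1% DMSO. Output IC50, optionally converted to Ki.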
row,pIC50,Structure (SMILES)
1,> 7.30,"Cc1ccc(Cl)c(CNC(=O)c2cccc(-c3cnc(N)c(C(=O)N[C@H]4CCCNC4)n3)c2)c1F [Example 1012, 3-amino-6-[3-({[(6-chloro-2-fluoro-3-methylphenyl)methyl]amino}carbonyl)phenyl]-N-[(3S)-piperidin-3-yl]pyrazine-2-carboxamide]"
2,> 7.30,"Nc1ncc(-c2cccc(CNC(=O)c3ncccc3O)c2)nc1C(=O)N[C@H]1CCCNC1 [Example 987, 3-amino-6-[3-({[(3-hydroxypyridin-2-yl)carbonyl]amino}methyl)phenyl]-N-[(3S)-piperidin-3-yl]pyrazine-2-carboxamide]"
3,> 7.30,"Nc1ncc(-c2cccc(CNS(=O)(=O)c3ccc4c(c3)OCCCO4)c2)nc1C(=O)N[C@H]1CCCNC1 [Example 906, 3-amino-6-(3-{[(3,4-dihydro-2H-1,5-benzodioxepin-7-ylsulfonyl)amino]methyl}phenyl)-N-[(3S)-piperidin-3-yl]pyrazine-2-carboxamide]"
4,> 7.30,"Nc1ncc(-c2cccc(CNC(=O)c3cc(Cl)sc3Cl)c2)nc1C(=O)N[C@H]1CCCNC1 [Example 992, 3-amino-6-[3-({[(2,5-dichloro-3-thienyl)carbonyl]amino}methyl)phenyl]-N-[(3S)-piperidin-3-yl]pyrazine-2-carboxamide]"
5,> 7.30,"Nc1ncc(-c2cccc(C(=O)NCc3ccc(F)cc3)c2)nc1C(=O)N[C@H]1CCCNC1 [Example 842, 3-amino-6-[3-({[(4-fluorophenyl)methyl]amino}carbonyl)phenyl]-N-[(3S)-piperidin-3-yl]pyrazine-2-carboxamide]"
6,> 7.30,"Nc1ncc(-c2cccc(CNC(=O)COc3ccc(OC(F)(F)F)cc3)c2)nc1C(=O)N[C@H]1CCCNC1 [Example 988, 3-amino-N-[(3S)-piperidin-3-yl]-6-[3-({[({4-[(trifluoromethyl)oxy]phenyl}oxy)acetyl]amino}methyl)phenyl]pyrazine-2-carboxamide]"

# Same assay, conditions: Table 11; Chk1 only; read-out: Chk1 IC50
row,Structure (SMILES),pIC50
1,"CN(C)c1nccc(-c2nc(-c3cccc(C(=O)NCc4ccccc4)c3)cnc2N)n1 [Example 609, 3-{5-amino-6-[2-(dimethylamino)pyrimidin-4-yl]pyrazin-2-yl}-N-(phenylmethyl)benzamide]",≤ 5.00
2,"NCCCNC(=O)c1nc(-c2cccc(C(=O)NCc3ccccc3)c2)cnc1N [Example 613, 3-amino-N-(3-aminopropyl)-6-(3-{[(phenylmethyl)amino]carbonyl}phenyl)pyrazine-2-carboxamide]",6.00 to 7.30
3,"Nc1ncc(-c2cccc(C(=O)NCc3ccccc3)c2)nc1C(=O)NCCCNC(=O)c1cnc2ccccc2n1 [Example 651, N-[3-({[3-amino-6-(3-{[(phenylmethyl)amino]carbonyl}phenyl)pyrazin-2-yl]carbonyl}amino)propyl]quinoxaline-2-carboxamide]",≤ 5.00
4,"CN(C)c1ccc(C(=O)NCCNC(=O)c2nc(-c3cccc(C(=O)NCc4ccccc4)c3)cnc2N)cc1 [Example 692, 3-amino-N-[2-({[4-(dimethylamino)phenyl]carbonyl}amino)ethyl]-6-(3-{[(phenylmethyl)amino]carbonyl}phenyl)pyrazine-2-carboxamide]",≤ 5.00
5,"CC(C)(C)OC(=O)NCCNC(=O)c1nc(-c2cccc(C(=O)NCc3ccccc3)c2)cnc1N [Example 615, 1,1-dimethylethyl [2-({[3-amino-6-(3-{[(phenylmethyl)amino]carbonyl}phenyl)pyrazin-2-yl]carbonyl}amino)ethyl]carbamate]",≤ 5.00

# Further lines, results first:
row,pIC50,Structure (SMILES)
1,5.00 to 6.00,"COC(=O)CNC(=O)c1nc(-c2cccc(C(=O)NCc3ccccc3)c2)cnc1N [Example 576, methyl N-{[3-amino-6-(3-{[(phenylmethyl)amino]carbonyl}phenyl)pyrazin-2-yl]carbonyl}glycinate]"
2,6.00 to 7.30,"COC(=O)c1nc(-c2cccc(CNC3CCc4c(F)ccc(F)c43)c2)cnc1N (stereo not drawn) [Example 455, methyl 3-amino-6-(3-{[(4,7-difluoro-2,3-dihydro-1H-inden-1-yl)amino]methyl}phenyl)pyrazine-2-carboxylate]"
3,6.00 to 7.30,"CNC(=O)c1nc(-c2cccc(CNC(CN3CCCC3)c3ccccc3)c2)cnc1N (stereo not drawn) [Example 518, 3-amino-N-methyl-6-(3-{[(1-phenyl-2-pyrrolidin-1-ylethyl)amino]methyl}phenyl)pyrazine-2-carboxamide]"
4,5.00 to 6.00,"CNC(=O)c1nc(-c2ccc3ccnc(NCc4ccccc4)c3c2)cnc1N [Example 516, 3-amino-N-methyl-6-{1-[(phenylmethyl)amino]isoquinolin-7-yl}pyrazine-2-carboxamide]"
5,6.00 to 7.30,"CNC(=O)c1nc(-c2cccc(CNC3CCc4cc(Br)ccc43)c2)cnc1N (stereo not drawn) [Example 461, 3-amino-6-(3-{[(5-bromo-2,3-dihydro-1H-inden-1-yl)amino]methyl}phenyl)-N-methylpyrazine-2-carboxamide]"
6,6.00 to 7.30,"CNC(=O)c1nc(-c2cccc(CN[C@H]3CCC[C@@H]3OCc3ccccc3)c2)cnc1N [Example 499, 3-amino-N-methyl-6-{3-[({(1S,2S)-2-[(phenylmethyl)oxy]cyclopentyl}amino)methyl]phenyl}pyrazine-2-carboxamide]"
7,6.00 to 7.30,"CNC(=O)c1nc(-c2cccc(CN[C@H]3c4ccccc4C[C@H]3OC)c2)cnc1N [Example 460, 3-amino-N-methyl-6-[3-({[(1S,2R)-2-(methyloxy)-2,3-dihydro-1H-inden-1-yl]amino}methyl)phenyl]pyrazine-2-carboxamide]"

# Same assay, conditions: read-out: Chk1 IC50
row,Structure (SMILES),pIC50
1,"Nc1ncc(-c2ccccc2)nc1C(=O)NC1CCCCC1 [Example 14, 3-amino-N-cyclohexyl-6-phenylpyrazine-2-carboxamide]",≤ 5.00
2,"CNC(=O)c1nc(-c2cccc(C(=O)NC3CCCC3)c2)cnc1N [Example 220, 3-amino-6-{3-[(cyclopentylamino)carbonyl]phenyl}-N-methylpyrazine-2-carboxamide]",5.00 to 6.00
3,"CNC(=O)c1nc(-c2cncnc2)cnc1N [Example 233, 3-amino-N-methyl-6-pyrimidin-5-ylpyrazine-2-carboxamide]",≤ 5.00

# The next lines start with the values.
row,pIC50,Structure (SMILES)
1,5.00 to 6.00,"CNC(=O)c1nc(-c2cccc(C(=O)Nc3ccccc3)c2)cnc1N [Example 142, 3-amino-N-methyl-6-{3-[(phenylamino)carbonyl]phenyl}pyrazine-2-carboxamide]"
2,> 7.30,"CNC(=O)c1nc(-c2cccc(C(=O)NCc3cc(F)cc(F)c3)c2)cnc1N [Example 339, 3-amino-6-[3-({[(3,5-difluorophenyl)methyl]amino}carbonyl)phenyl]-N-methylpyrazine-2-carboxamide]"
3,6.00 to 7.30,"CNC(=O)c1nc(-c2cccc(CNCc3cccc(-c4csnn4)c3)c2)cnc1N [Example 423, 3-amino-N-methyl-6-{3-[({[3-(1,2,3-thiadiazol-4-yl)phenyl]methyl}amino)methyl]phenyl}pyrazine-2-carboxamide]"
4,6.00 to 7.30,"CNC(=O)c1nc(-c2cccc(CNCc3ccccc3-c3ccccc3)c2)cnc1N [Example 383, 3-amino-6-(3-{[(biphenyl-2-ylmethyl)amino]methyl}phenyl)-N-methylpyrazine-2-carboxamide]"
5,6.00 to 7.30,"CNC(=O)c1nc(-c2cccc(CNCc3cc(F)ccc3F)c2)cnc1N [Example 388, 3-amino-6-[3-({[(2,5-difluorophenyl)methyl]amino}methyl)phenyl]-N-methylpyrazine-2-carboxamide]"
6,6.00 to 7.30,"CNC(=O)c1nc(-c2cccc(C(=O)NCC3COc4ccccc4O3)c2)cnc1N (stereo not drawn) [Example 202, 3-amino-6-(3-{[(2,3-dihydro-1,4-benzodioxin-2-ylmethyl)amino]carbonyl}phenyl)-N-methylpyrazine-2-carboxamide]"
7,> 7.30,"CNC(=O)c1nc(-c2cccc(CNCc3ccc(F)cc3F)c2)cnc1N [Example 387, 3-amino-6-[3-({[(2,4-difluorophenyl)methyl]amino}methyl)phenyl]-N-methylpyrazine-2-carboxamide]"
8,6.00 to 7.30,"CNC(=O)c1nc(-c2cccc(C(=O)NCc3ccc(C)c(F)c3)c2)cnc1N [Example 295, 3-amino-6-[3-({[(3-fluoro-4-methylphenyl)methyl]amino}carbonyl)phenyl]-N-methylpyrazine-2-carboxamide]"
9,5.00 to 6.00,"CNC(=O)c1nc(-c2cccc(C(=O)NCc3cccc(F)c3F)c2)cnc1N [Example 215, 3-amino-6-[3-({[(2,3-difluorophenyl)methyl]amino}carbonyl)phenyl]-N-methylpyrazine-2-carboxamide]"
10,6.00 to 7.30,"CNC(=O)c1nc(-c2cccc(CNC(=O)c3ccc(C(C)C)cc3)c2)cnc1N [Example 374, 3-amino-N-methyl-6-{3-[({[4-(1-methylethyl)phenyl]carbonyl}amino)methyl]phenyl}pyrazine-2-carboxamide]"
11,≤ 5.00,"NC(=O)c1nc(-c2ccc(F)cc2F)cnc1N [Example 18, 3-amino-6-(2,4-difluorophenyl)pyrazine-2-carboxamide]"
12,6.00 to 7.30,"CNC(=O)c1nc(-c2cccc(C(=O)NCCOc3ccccc3)c2)cnc1N [Example 198, 3-amino-N-methyl-6-[3-({[2-(phenyloxy)ethyl]amino}carbonyl)phenyl]pyrazine-2-carboxamide]"

# Reference: patent US7704995B2 (Exelixis, Inc., priority 2003, dated 2010)
